Reference: PMC10981727, “Design, synthesis and bioactivity study on oxygen-heterocyclic-based pyran analogues as effective P-glycoprotein-mediated multidrug resistance in MCF-7/ADR cell” (Scientific Reports, 2024)
Where two headings read alike, the source gives them in different places.

How the values were obtained:
PC-3 = assay: MTT viability assay, PC-3; type: cell-based; settings: MTT, 24 h incubation, mean ± standard error
Description: (§1) Using concentrations ranging from 0 to 100 μM against PC-3, SKOV-3, and HeLa cancerogenic cell lines, target compounds 4a–l were assessed for their anticancer activities[53] and compared with the commercially available Vinblastine and Doxorubicin. […] The compounds with the greatest cytotoxic activity against the cancerous cell lines PC-3, SKOV-3, and HeLa were 4a–c, 4g, and 4h. […] We selected the cytotoxic active compounds 4a–c, 4g, and 4h to be evaluated against MCF-7/ADR cancerogenic and HFL-1 and WI-38 non-cancerogenic cell lines (Figs. 7, 8 and Table 1).
(§2) The tumor cell lines (PC-3, SKOV-3, and HeLa), resistant cell strains (MCF-7/ADR) and the normal cell lines, (HFL-1, WI-38) were obtained from the American Type Culture Collection (ATCC, Rockville, MD, USA).
(§3) The tumor cell lines were suspended in medium at concentration 5 × 10^4 cells well^−1 in Corning® 96-well tissue culture plates and then incubated for 24 h. The tested compounds with concentrations ranging from 0 to 100 μM were then added into 96-well plates (six replicates) to achieve six different concentrations for each compound. Six vehicle controls with media or 0.5% DMSO were run for each 96 well plate as a control. After incubating for 24 h, the numbers of viable cells were determined by the MTT test[53]. Briefly, the media was removed from the 96 well plates and replaced with 100 μl of fresh culture RPMI 1640 medium without phenol red then 10 μl of the 12 mM MTT stock solution (5 mg of MTT in 1 ml of PBS) to each well including the untreated controls. The 96-well plates were then incubated at 37 °C and 5% CO2 for 4 h. An 85-μl aliquot of the media was removed from the wells, and 50 μl of DMSO was added to each well and mixed thoroughly with the pipette and incubated at 37 °C for 10 min. Then, the optical density was measured at 590 nm with the microplate reader (Sunrise, TECAN, Inc, USA) to determine the number of viable cells and the percentage of viability was calculated as […] where ODt is the mean optical density of wells treated with the tested sample and ODc is the mean optical density of untreated cells. The relation between surviving cells and drug concentration is plotted to get the survival curve of each tumor cell line after treatment with the specified compound. The 50% inhibitory concentration (IC50), the concentration required to cause toxic effects in 50% of intact cells, was estimated from graphic plots of the dose response curve for each concentration.

SKOV-3 = assay: MTT viability assay, SKOV-3; type: cell-based; settings: for IC50: MTT, 24 h incubation, mean ± standard error; for times more potency than Doxorubicin, SKOV-3 / times more potency than Vinblastine, SKOV-3: ratio of IC50 values
Description: as §1, §2, §3

HeLa = assay: MTT viability assay, HeLa; type: cell-based; settings: 24 h incubation, mean ± standard error
Description: as §1, §2, §3

MCF-7/ADR = assay: MTT viability assay, resistant MCF-7/ADR; type: cell-based; settings: MTT, 24 h exposure, mean ± standard error
Description: as §1, §2, §3

human fetal lung (HFL-1) = assay: MTT viability assay, normal HFL-1; type: cell-based; settings: HFL1, normal cell line, 24 h, mean ± standard error
Description: as §1, §2, §3

[1] = system: human diploid fibroblasts (WI-38); assay: MTT viability assay, normal WI-38; type: cell-based; settings: normal cell line, 24 h, mean ± standard error
Description: as §1, §2, §3

MCF-7/ADR cells [2] = assay: Cell cycle assay (propidium iodide flow cytometry); type: cell-based; settings: treated at IC50 value for 24 h; for percentage of MCF-7/ADR cells in S phase (%DIP S): untreated control 29.61%
Description: The most powerful recently synthesized substances 4a–c on regulating cell cycle progression of MCF-7/ADR cells was analyzed by the flow cytometry, exploiting the FACS Calibers (Becton Dickinson). […] Cell cycle progression results of compounds 4a and 4b show cell cycle arrest at S phase with 41.17% and 34.62% respectively compared to 29.61% of the negative untreated control. […] Cell cycle arrest and distribution were done using Propidium Iodide Flow Cytometry Kit (ab139418, Abcam) as previously described. […] The DNA content in each cell nucleus was determined by a FACS Calibur flow cytometer (BD Biosciences, Franklin Lakes, NJ, USA).

MCF-7/ADR cells [3] = assay: Annexin V-FITC/PI apoptosis assay; type: cell-based; settings: treated at IC50 value for 24 h; for necrosis (upper left quadrant, PI / Annexin V-FITC plot): control 1.56%; for total apoptosis percentage: equals sum of the three quadrants
Description: P-gp inhibits apoptosis by preventing the release of cytochrome c which is mediated by the intrinsic mitochondrial pathway. Also, blocking cell cycle progression, inducing apoptosis or the combined effect of both are one of the indicated mechanisms for the cytotoxic effect of the chemotherapeutic drugs. Therefore, further assessment of the pivotal relationship between the newly synthesized MCF-7/ADR anticancer compounds and apoptosis was measured by the means of the Annexin V/PI double staining flow cytometric assay.
Apoptosis assay was performed with an Annexin V-FITC/PI double staining apoptosis detection kit (K101, Biovison) using a flow cytometer. […] Cells were harvested by the trypsinization, washed twice with 4 °C PBS, and re-suspended in the binding buffer. Subsequently, the Annexin V-FITC and Propidium iodide (PI) solutions were added to stain the cells before the analysis by the flow cytometry, where a minimum of 10,000 cells per sample were acquired. The Annexin V-FITC binding (FL1) and PI (FL2) were analyzed, using the Cell Quest Pro software (BD Biosciences).

P-gp [4] = molecular target: T1, P-gp (Homo sapiens, UniProt P08183); assay: in vitro; settings: MCF-7/ADR cells (cell lysate)
Description: (§4) The content of P-gp in the MCF-7/ADR cell lysates after incubation with varying conc. […] Absorption was recorded at 450 nm with a Spectramax Gemini fluorescence microplate reader (Molecular Devices, Sunnyvale, CA, USA)[78].

P-gp [5] = molecular target: T1, P-gp; assay: cell-based
Description: Absorbance at 450 nm of each well was measured using Spectramax Gemini fluorescence microplate reader (Molecular Devices, Sunnyvale, CA, USA). The total content of Rhodamine in each sample was determined by comparison with a Rhodamine standard curve.

P-gp [6] = molecular target: T1, P-gp
Description: as §4

T1 sequence (P08183 whole entry): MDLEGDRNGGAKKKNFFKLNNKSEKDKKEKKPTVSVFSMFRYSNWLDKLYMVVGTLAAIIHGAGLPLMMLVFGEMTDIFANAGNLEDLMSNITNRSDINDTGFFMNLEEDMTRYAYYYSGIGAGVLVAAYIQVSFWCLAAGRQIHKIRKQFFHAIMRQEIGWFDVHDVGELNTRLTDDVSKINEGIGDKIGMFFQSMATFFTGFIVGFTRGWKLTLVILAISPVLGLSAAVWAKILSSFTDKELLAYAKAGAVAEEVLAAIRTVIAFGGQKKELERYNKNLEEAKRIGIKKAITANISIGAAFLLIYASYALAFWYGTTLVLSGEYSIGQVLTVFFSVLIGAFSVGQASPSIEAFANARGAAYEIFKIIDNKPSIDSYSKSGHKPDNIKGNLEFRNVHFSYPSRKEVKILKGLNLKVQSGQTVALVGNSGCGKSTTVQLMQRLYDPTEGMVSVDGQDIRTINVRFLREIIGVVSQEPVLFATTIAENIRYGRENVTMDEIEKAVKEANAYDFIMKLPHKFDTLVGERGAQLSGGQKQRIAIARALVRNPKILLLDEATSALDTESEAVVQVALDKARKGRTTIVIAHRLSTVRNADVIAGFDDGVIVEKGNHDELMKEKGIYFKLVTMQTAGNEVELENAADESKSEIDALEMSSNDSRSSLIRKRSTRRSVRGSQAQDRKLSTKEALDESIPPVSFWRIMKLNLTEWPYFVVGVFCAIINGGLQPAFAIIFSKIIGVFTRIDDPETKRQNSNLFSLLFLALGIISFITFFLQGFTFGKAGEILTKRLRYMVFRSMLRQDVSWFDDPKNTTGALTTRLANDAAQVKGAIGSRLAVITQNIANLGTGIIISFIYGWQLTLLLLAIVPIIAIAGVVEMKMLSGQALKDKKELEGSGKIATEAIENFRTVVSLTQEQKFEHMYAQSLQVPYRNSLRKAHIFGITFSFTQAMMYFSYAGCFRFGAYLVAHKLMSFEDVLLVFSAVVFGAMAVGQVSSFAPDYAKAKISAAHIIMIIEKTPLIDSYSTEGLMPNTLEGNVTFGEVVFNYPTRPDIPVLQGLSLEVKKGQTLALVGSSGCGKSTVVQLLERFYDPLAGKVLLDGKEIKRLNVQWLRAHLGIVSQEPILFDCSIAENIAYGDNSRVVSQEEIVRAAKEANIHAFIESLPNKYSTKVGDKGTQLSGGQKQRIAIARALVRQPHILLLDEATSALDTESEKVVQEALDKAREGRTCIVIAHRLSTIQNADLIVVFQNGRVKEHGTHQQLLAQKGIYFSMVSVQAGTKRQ

Molecule | IC50 (PC-3; Homo sapiens, PC-3) [nM] | IC50 (SKOV-3; Homo sapiens, SK-OV-3) [nM] | times more potency than Doxorubicin, SKOV-3 (SKOV-3) [times] | times more potency than Vinblastine, SKOV-3 (SKOV-3) [times] | IC50 (HeLa; Homo sapiens, HeLa) [nM] | IC50 (MCF-7/ADR; Homo sapiens, NCI/ADR-RES) [µM] | IC50 (human fetal lung (HFL-1)) [µM] | IC50 [1] [µM] | percentage of MCF-7/ADR cells in S phase (%DIP S) (MCF-7/ADR cells [2]) [%] | necrosis (upper left quadrant, PI / Annexin V-FITC plot) (MCF-7/ADR cells [3]) [%] | total apoptosis percentage (MCF-7/ADR cells [3]) [%] | melting point [°C] | IC50 at 48 h (P-gp [4]) [µM] | IC50 (P-gp [5]) [µM] | percentage of MCF-7/ADR cells in G2/M phase (%DIP G2/M) (MCF-7/ADR cells [2]; untreated control 15.01%) [%] | IC50 (PC-3) [nM] | IC50 (SKOV-3) [nM] | IC50 (HeLa) [nM] | IC50 (MCF-7/ADR) [µM] | IC50 (P-gp [6]) [µM]
N#CC1=C(N)Oc2ccc3ccc(O)cc3c2C1c1ccc(F)cc1 (centres unmarked) [4a, 3-Amino-1-(4-fluorophenyl)-9-hydroxy-1H-benzo[f]chromene-2-carbonitrile] | 1800 ± 300 | 600 ± 200 | 1.8 | 5.3 | 1500 ± 300 | 9.5 ± 0.3 | 69.8 ± 0.3 | 83.7 ± 1.1 | 41.17 | 16.42 | 31.98 | 272 | 34.7 | 30.9 |  |  |  |  |  | 
N#CC1=C(N)Oc2ccc3ccc(O)cc3c2C1c1ccccc1Cl (centres unmarked) [4b, 3-Amino-1-(2-chlorophenyl)-9-hydroxy-1H-benzo[f]chromene-2-carbonitrile] | 3300 ± 500 | 700 ± 200 | 1.6 | 4.6 | 2400 ± 200 | 5 ± 0.1 | 72 ± 0.2 | 61.1 ± 0.1 | 34.62 |  | 43.51 | 262 to 263 | 15.4 | 13.3 |  |  |  |  |  | 
N#CC1=C(N)Oc2ccc3ccc(O)cc3c2C1c1cccc(Cl)c1 (centres unmarked) [4c, 3-Amino-1-(3-chlorophenyl)-9-hydroxy-1H-benzo[f]chromene-2-carbonitrile] | 2300 ± 2200 | 800 ± 100 | 1.4 | 4 | 2100 ± 200 | 10.7 ± 0.3 | 56.5 ± 1.2 | 58.2 ± 1.1 |  |  | 36.17 | 260 to 261 | 27.3 | 21.5 | 29.54 |  |  |  |  | 
Doxorubicin [reference compound] |  |  |  |  |  |  |  |  |  | 3.33 | 29.59 |  |  |  |  | 1300 ± 300 | 1100 ± 200 | 1500 ± 300 | 18.6 ± 0.2 | 50.9
